# Assay results: PubChem BioAssay (NCI)
#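 Five compound concentrations were applied to cells in 96-well plates for 48 hours; endpoints were derived by simple linear interpolation of the resulting dose-response curve. GI50 is the concentration that inhibits growth by half. TGI: total growth inhibition.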
# System: MALME-3M melanoma
# Assay: inhibition of tumour cell growth, NCI panel, 48 h
SMILES,GI50,TGI
OC[C@H]1C[C@](O)(c2ccc(Cl)cc2)[C@@H](c2ccc(Cl)cc2)O1,21.5 µM,45.4 µM
CC(C)N(C(=O)C12C3C4C5(C#N)C3C1(C#N)C5C42I)C(C)C (configuration not stated),–,> 100 µM
C=COCCCOc1ccccc1,–,> 100 µM
COc1cc2nc(-c3ccc(Cl)cc3)cc(OCCCN3CCCCC3)c2cc1OC,1.74 µM,4.53 µM
C=C(c1nc2ccc(Cl)cc2[nH]c1=O)C(O)c1ccc(C(O)C(=O)c2nc3ccc(Cl)cc3[nH]c2=O)cc1 (configuration not stated),–,> 100 µM
O=c1c2sc(=S)n(-c3ccc(F)cc3)c2ncn1Cc1ccc(F)cc1F,> 100 µM,> 100 µM
CC(C)(C)CC(C)(C)c1cc2c(O)c(c1)Cc1cc(C(C)(C)CC(C)(C)C)cc(c1O)Cc1cc(C(C)(C)CC(C)(C)C)cc(c1O)Cc1cc(C(C)(C)CC(C)(C)C)cc(c1O)C2,–,> 100 µM
COc1cc(C#CC(=O)OC/C=C/c2ccc3c(c2)OCO3)cc(OC)c1OC,–,47.7 µM
Cc1cc([N+](=O)[O-])ccc1Nc1cccc(Cl)c1C,–,29.2 µM
CC1=C(C(=O)Nc2ccccc2)C(c2ccccc2)C(C(=O)Nc2ccccc2)=C(C)N1,–,> 100 µM
Cc1nn(-c2ccccc2)c2nc(N3CCOCC3)nnc12,–,> 100 µM
CCN(CC)CCOc1ccc(-c2nc3cc(Cl)ccc3s2)cc1,1.45 µM,2.8 µM
CCOc1ccccc1C=C1c2ccccc2C(=O)c2ccccc21,–,> 100 µM
O=C(CCn1[nH]c(=O)c(Cl)c(Cl)c1=O)NO,–,> 100 µM
CC(C)=CC/C=C(/C)[C@H]1CC[C@]2(C)[C@@H]1CC[C@@H]1[C@@]3(C)CCCNC(C)(C)[C@@H]3CC[C@]12C,1.97 µM,4.69 µM
[N-]=[N+]=NC12CC3C4CC5CC3C(C1)C(C5)C4C2,–,> 100 µM
CN(C)c1nc2ccccc2[nH]1,–,> 100 µM
NNC(=S)N/N=C(\CC1OC(=O)c2ccccc21)c1ccccc1O (configuration not stated),–,> 100 µM

SMILES,GI50,TGI
COC(=O)C1=C(O)c2cc(OC)c(OC)cc2C(c2ccc(OC)c(OC)c2)C1 (configuration not stated),–,> 100 µM
COC1(OC)CC2C(=O)N(Cc3ccccc3)C1C(S(=O)(=O)c1ccccc1)C2S(=O)(=O)c1ccccc1 (configuration not stated),–,29.3 µM
Cc1cc(CC(O)c2ccc(Cl)c(Cl)c2)nc(=O)[nH]1 (configuration not stated),–,> 100 µM
COC(=O)C(=Cc1cc(OC)ccc1OC)C(=O)OC,–,74.6 µM
CC1=NNC(=O)C2CCC(=O)N12 (configuration not stated),–,> 100 µM
CC(C)c1ccccc1NC(=O)CCc1n[nH]c(=S)o1,–,> 100 µM
CC(C)=CCNc1ncnc2c1ncn2C1OC(CO)C(O)C1O (configuration not stated),226 µM,> 1000 µM
CCCCC(C(=O)C(=O)NC1C2CC3CC(C2)CC1C3)C(=O)C(C)C (configuration not stated),–,> 100 µM
COC(=O)c1cc2c(s1)C(=O)c1ccccc1-2,–,> 100 µM
NC(=O)NC1C(c2ccccc2)=C1c1ccccc1,–,61 µM
Cn1c2c(c3ccccc31)C1CCCCCCC1C1C(=O)OC(=O)C21 (configuration not stated),–,69 µM
Cc1ccc(S(=O)(=O)N(CC(=O)O)c2ccccc2)cc1,–,> 100 µM
COc1ccc(C(=O)C(c2ccc(OC)cc2)C2(O)C(=O)Nc3ccc([N+](=O)[O-])cc32)cc1 (configuration not stated),–,> 100 µM
O=C(/C=C/c1ccccc1O)c1ccccc1O,–,> 100 µM
N#CC(N)(C(=O)CCC(=O)Nc1cccc(Cl)c1)c1ccc(Cl)cc1 (configuration not stated),–,> 100 µM
S=C(Nc1ccccc1)N(/N=C/C=C/c1ccccc1)c1nnc(-c2ccccc2)c(-c2ccccc2)n1,–,> 100 µM
CN1CCN(CCOc2ccc(-c3cnc4c(-c5ccccc5F)cnn4c3)cc2)CC1,1.56 µM,2.95 µM

# System: A549 NSCLC
# Assay: inhibition of tumour cell growth, NCI panel, 48 h
SMILES,GI50,TGI
OC[C@H]1C[C@](O)(c2ccc(Cl)cc2)[C@@H](c2ccc(Cl)cc2)O1,29.6 µM,78.7 µM
CC(C)N(C(=O)C12C3C4C5(C#N)C3C1(C#N)C5C42I)C(C)C (configuration not stated),–,> 100 µM
C=COCCCOc1ccccc1,–,> 100 µM
COc1cc2nc(-c3ccc(Cl)cc3)cc(OCCCN3CCCCC3)c2cc1OC,1.9 µM,> 100 µM
COc1ccc2c3c([nH]c2c1[N+](=O)[O-])C(C)=NCC3,–,> 100 µM
C=C(c1nc2ccc(Cl)cc2[nH]c1=O)C(O)c1ccc(C(O)C(=O)c2nc3ccc(Cl)cc3[nH]c2=O)cc1 (configuration not stated),–,> 100 µM
O=c1c2sc(=S)n(-c3ccc(F)cc3)c2ncn1Cc1ccc(F)cc1F,92.1 µM,> 100 µM
